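Growth conditions: 96-well plates. Treatment: test compound, 48 hours, 5 concentrations. Analysis: linear interpolation between bracketing concentrations; unreached endpoints set to highest concentration. Abbreviation: GI50, concentration required for 50% inhibition of growth. At the TGI there is no net growth.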
Experiments:
Experiment in all cases: DTP human tumour cell line panel, 48 h
SNB-19 CNS = test system: SNB-19 CNS
A549 NSCLC = test system: A549 NSCLC
IGROV1 ovarian = test system: IGROV1 ovarian
CAKI-1 renal = test system: CAKI-1 renal
HOP-62 NSCLC = test system: HOP-62 NSCLC
U251 CNS = test system: U251 CNS
NCI-H522 lung = test system: NCI-H522 lung
UACC-257 melanoma = test system: UACC-257 melanoma
SK-MEL-5 melanoma = test system: SK-MEL-5 melanoma
RPMI-8226 leukemia = test system: RPMI-8226 leukemia

Compound	GI50 (SNB-19 CNS) [µM]	TGI (SNB-19 CNS) [µM]	GI50 (A549 NSCLC) [µM]	TGI (A549 NSCLC) [µM]	GI50 (IGROV1 ovarian) [µM]	TGI (IGROV1 ovarian) [µM]	GI50 (CAKI-1 renal) [µM]	TGI (CAKI-1 renal) [µM]	GI50 (HOP-62 NSCLC) [µM]	TGI (HOP-62 NSCLC) [µM]	GI50 (U251 CNS) [µM]	TGI (U251 CNS) [µM]	GI50 (NCI-H522 lung) [µM]	TGI (NCI-H522 lung) [µM]	GI50 (UACC-257 melanoma) [µM]	TGI (UACC-257 melanoma) [µM]	GI50 (SK-MEL-5 melanoma) [µM]	TGI (SK-MEL-5 melanoma) [µM]	GI50 (RPMI-8226 leukemia) [µM]	TGI (RPMI-8226 leukemia) [µM]
CNC(C)[C@H]1CCC2C3CC=C4C(=O)[C@@H](NC(=O)C=C(C)C)CC[C@]4(C)C3CC[C@@]21C (some centres undefined)	5.26	17.4	2.46	6.82	3.19	11.8	1.68	5.53	1.7	3.63	2.19	11.8	2.27	7.55	2.33	5.54	1.14	2.39	1.13	5.27
COc1ccc2c(c1)C(C)Cc1c(ncnc1-n1cnc3ccccc31)N2C (centres undefined)	0.695	27.5	0.642	16.6	1.41	29.1	0.373	17.2	0.638	25	0.59	16.2	0.254	0.744	13.6	26.6	0.368	1.89	0.556	27.6
COC(=O)[C@]12CC[C@@H](C)[C@H](C)[C@@H]1C1=CC[C@@H]3[C@@]4(C)C(C=O)=C[C@@](C)(COC(=O)c5ccco5)[C@@H]4[C@H](O)C[C@@]3(C)[C@]1(C)CC2	4.32	30.8	3.51	16.2	3.03	> 100	2.86	> 100	2.16	6.07	1.41	2.91	1.64	3.94	0.263	0.997	0.453	1.65	1.76	6.7
c1ccc(NCCSc2nc3ccccc3s2)cc1	–	> 100	–	> 100	–	> 100	–	> 100	–	> 100	–	> 100	–	> 100	–	77	–	42.3	–	> 100
O=C1c2ccccc2C(=O)N1C/C=N/NS(=O)(=O)c1ccc(Br)cc1	–	> 100	–	> 100	–	> 100	–	> 100	–	> 100	–	> 100	–	> 100	–	> 100	–	> 100	–	> 100
Cn1c(=S)c2[nH]c(SCCCc3ccccc3)nc2n(C)c1=O	–	53.6	–	72	–	> 100	–	> 100	–	> 100	–	> 100	–	> 100	–	44.8	–	33.5	–	92.6
COc1ccc(-c2nn(-c3cccc(Cl)c3)cc2-c2nc(N)[nH]c(=O)c2C#N)cc1	4.58	> 100	5.13	50.8	3.01	18.1	2.52	15.3	10.1	26.2	3.66	18.8	3.11	9.8	5.69	47.3	4.07	15.9	5.63	55.5
CS(=O)(=O)CS(=O)(=O)OCCCl	–	969	–	1640	–	911	–	799	–	151	–	664	–	723	–	808	–	777	–	3170
O=C1C=CC(=CC=C2C=CN(CCCCCCCCCCC(=O)NCCCCCCCCCCCC(=O)O)C=C2)C=C1	–	> 100	–	> 100	–	> 100	–	> 100	–	> 100	–	> 100	–	> 100	–	> 100	–	> 100	–	> 100
Nc1c(C(=O)Nc2ccccc2Cl)sc2nc3c(cc12)C(=O)CCC3	12.5	> 100	0.648	> 100	> 100	> 100	1.84	> 100	4.33	> 67.3	4.18	> 100	0.777	> 100	1.62	> 100	1.02	> 100	> 100	> 100
CN1C(NNC(=O)c2cccnc2)=NS(=O)(=O)c2cc(Cl)ccc21	> 100	> 100	> 100	> 100	> 100	> 100	> 100	> 100	> 100	> 100	> 100	> 100	> 100	> 100	> 100	> 100	> 100	> 100	> 100	> 100
CC1(C)N=C(N)N=C(N)N1c1cccc(OCCOc2cccc([N+](=O)[O-])c2)c1	4.88	> 100	0.561	> 100	0.565	> 100	> 100	> 100	31.2	> 100	0.808	> 100	1.19	62.5	4.32	> 100	4.5	33.5	4.01	> 100
O=C1C=C(Nc2ccc(S(=O)(=O)Nc3nccs3)cc2)c2ccccc2C1=O	–	86.3	–	> 100	–	> 100	–	82.9	–	29.7	–	48	–	> 100	–	> 100	–	38.7	–	98.5
NCCCn1c2c(c3ccccc3c1=O)C(=O)c1ccccc1-2	0.0857	3.43	0.0597	0.815	0.34	> 64.4	0.0435	0.364	0.0875	0.64	0.0888	1.42	0.564	13.4	0.544	2.19	0.105	0.948	–	0.528
Oc1ccc(/C=C/c2cc(O)cc3c2C(c2cc(O)cc(O)c2)C(c2ccc(O)c(O)c2)O3)cc1 (centres undefined)	–	54.3	–	> 100	–	> 100	–	98.1	–	> 100	–	> 100	–	83	–	> 100	–	34.7	–	40.6
